In patent publication US8048862B2, “Macrocyclic inhibitors of hepatitis C virus replication” (priority 2008, dated 2011):
Read-outs that look alike come from different tables or passages of the source.

Assays:
hepatitis C replicon = hepatitis C replicon EC50; assay type: cell-based; conditions: Hepatitis C virus
Text: NS3-NS4 inhibition activity can be determined using known assay methods.

NS3/NS4 complexes = NS3/NS4 complexes (Hepatitis C virus genotype 1a, UniProt P27958); assay: NS3/NS4 inhibition activity (IC50); assay type: biochemical
How it was run: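 Buffer: 50 mM Tris-HCl (pH 7.5), 10 mM DTT, 25 μM NS4A peptide, 0.6 mM LDAO and 15% glycerol. Assays were run at 23 °C with preformed NS3/NS4 complex, and the compound concentration giving inhibition was derived as an IC50.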

[1] = Table 3, hepatitis C replicon, read-out: EC50
[2] = Table 2, hepatitis C replicon, read-out: EC50

Chain of NS3/NS4 complexes (P27958 1027-1657): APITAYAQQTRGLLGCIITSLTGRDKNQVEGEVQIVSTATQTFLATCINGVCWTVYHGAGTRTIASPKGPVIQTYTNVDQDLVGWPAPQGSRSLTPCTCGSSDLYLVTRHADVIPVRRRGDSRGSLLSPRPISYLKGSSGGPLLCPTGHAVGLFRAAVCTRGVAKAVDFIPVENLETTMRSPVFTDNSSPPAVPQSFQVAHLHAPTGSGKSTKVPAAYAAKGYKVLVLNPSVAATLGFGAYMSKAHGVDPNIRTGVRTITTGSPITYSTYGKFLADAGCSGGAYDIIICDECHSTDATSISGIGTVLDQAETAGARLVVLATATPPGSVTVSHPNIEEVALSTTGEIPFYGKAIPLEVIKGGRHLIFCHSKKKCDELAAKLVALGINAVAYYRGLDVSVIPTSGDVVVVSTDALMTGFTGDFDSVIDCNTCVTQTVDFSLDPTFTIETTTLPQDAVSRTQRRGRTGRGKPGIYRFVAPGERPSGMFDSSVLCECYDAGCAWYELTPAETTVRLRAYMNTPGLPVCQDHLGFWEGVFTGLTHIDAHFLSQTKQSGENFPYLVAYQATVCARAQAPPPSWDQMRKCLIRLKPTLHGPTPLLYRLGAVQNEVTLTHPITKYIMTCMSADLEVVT
Chain of NS3/NS4 complexes (P27958 1658-1711): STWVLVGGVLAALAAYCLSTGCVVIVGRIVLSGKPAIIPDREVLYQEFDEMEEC

Compound	EC50 (hepatitis C replicon; [1])	IC50 (NS3/NS4 complexes; Table 3, read-out: IC50)	EC50 (hepatitis C replicon; [2])	IC50 (NS3/NS4 complexes; Table 2, read-out: IC50)	other results
CC1(S(=O)(=O)NC(=O)[C@@]23C[C@H]2/C=C\CCCCC[C@H](Nc2cccc(C#N)c2)C(=O)N2C[C@H](OC(=O)N4Cc5cccc(F)c5C4)C[C@H]2C(=O)N3)CC1 [Compound 1113]	10 to 100 nM	< 0.01 µM			
CC(C)(C)OC(=O)N[C@H]1CCCCC/C=C\[C@@H]2C[C@@]2(C(=O)NS(=O)(=O)c2ccccc2OCC(N)=O)NC(=O)[C@@H]2C[C@@H](OC(=O)N3Cc4cccc(F)c4C3)CN2C1=O [Compound 1083]	> 100 nM	< 0.01 µM			
CC1(S(=O)(=O)NC(=O)[C@@]23C[C@H]2/C=C\CCCCC[C@H](Nc2cc(F)c(F)c(F)c2)C(=O)N2C[C@H](OC(=O)N4Cc5cccc(F)c5C4)C[C@H]2C(=O)N3)CC1 [Compound 1108]	10 to 100 nM	< 0.01 µM			
COc1ccc2c(O[C@@H]3C[C@H]4C(=O)N[C@]5(C(=O)NS(=O)(=O)C6(C)CC6)C[C@H]5/C=C\CCCCC[C@H](Nc5cccc(C(F)(F)F)c5)C(=O)N4C3)cc(-c3ccccc3)nc2c1 [Compound 229]			< 10 nM	< 0.01 µM	
COc1ccc2c(O[C@@H]3C[C@H]4C(=O)N[C@]5(C(=O)O)C[C@H]5/C=C\CCCCC[C@H](Nc5ccccc5)C(=O)N4C3)cc(-c3nc(C(C)C)cs3)nc2c1C [Compound 449]			10 to 75 nM	< 0.01 µM	
O=C1N[C@]2(C(=O)NS(=O)(=O)C3CC3)C[C@H]2/C=C\CCCCC[C@H](Nc2ccc(F)cc2)C(=O)N2C[C@H](Oc3nc4ccccc4s3)C[C@@H]12 [Compound 348]			75 to 500 nM	< 0.01 µM	
CC(C)(C)OC(=O)N[C@H]1CCCCC/C=C\[C@@H]2C[C@@]2(C(=O)NS(=O)(=O)C2(C)CC2)NC(=O)[C@@H]2C[C@@H](Oc3nc4ccccc4[nH]3)CN2C1=O [Compound 1079]		< 0.01 µM			EC50 (hepatitis C replicon): > 100 nM
Cc1ccc2nc(O[C@@H]3C[C@H]4C(=O)N[C@]5(C(=O)NS(=O)(=O)C6(C)CC6)C[C@H]5/C=C\CCCCC[C@H](NC(=O)OC(C)(C)C)C(=O)N4C3)sc2c1 [Compound 1014]	< 10 nM	< 0.01 µM			
COc1ccc2c(O[C@@H]3C[C@H]4C(=O)N[C@]5(C(=O)NS(=O)(=O)C6(C)CC6)C[C@H]5/C=C\CCCCC[C@H](Nc5cccc(C)c5)C(=O)N4C3)cc(-c3nc(C(C)C)cs3)nc2c1C [Compound 477]			< 10 nM	< 0.01 µM	
O=C1N[C@]2(C(=O)NS(=O)(=O)C3CC3)C[C@H]2/C=C\CCCCC[C@H](NCc2ccccc2)C(=O)N2C[C@H](Oc3nc4ccccc4s3)C[C@@H]12 [Compound 197]			10 to 75 nM	< 0.01 µM	
COc1ccc2c(O[C@@H]3C[C@H]4C(=O)N[C@]5(C(=O)NS(=O)(=O)N(C)C)C[C@H]5/C=C\CCCCC[C@H](Nc5ccc(F)cc5)C(=O)N4C3)cc(-c3nc(C(C)C)cs3)nc2c1C [Compound 415]			< 10 nM	< 0.01 µM	
CC1(S(=O)(=O)NC(=O)[C@@]23C[C@H]2/C=C\CCCCC[C@H](Nc2ccc(F)c(F)c2)C(=O)N2C[C@H](OC(=O)N4Cc5cccc(F)c5C4)C[C@H]2C(=O)N3)CC1 [Compound 1107]	10 to 100 nM	< 0.01 µM			
O=C1N[C@]2(C(=O)O)C[C@H]2/C=C\CCCCC[C@H](Nc2ccc(Cl)cc2)C(=O)N2C[C@H](Oc3nc4ccccc4s3)C[C@@H]12 [Compound 331]			> 500 nM	0.075 to 0.5 µM	
CC(C)(C)OC(=O)N[C@H]1CCCCC/C=C\[C@@H]2C[C@@]2(C(=O)NS(=O)(=O)C2CC2)NC(=O)[C@@H]2C[C@@H](Oc3nc4ccccc4o3)CN2C1=O [Compound 1029]	10 to 100 nM	< 0.01 µM			
Cc1ccc2nc(O[C@@H]3C[C@H]4C(=O)N[C@]5(C(=O)NS(=O)(=O)C6CC6)C[C@H]5/C=C\CCCCC[C@H](NC(=O)OC(C)(C)C)C(=O)N4C3)oc2c1 [Compound 1033]	10 to 100 nM	< 0.01 µM			
O=C1N[C@]2(C(=O)O)C[C@H]2/C=C\CCCCC[C@H](Nc2ccc(Cl)c(Cl)c2)C(=O)N2C[C@H](Oc3nc4ccccc4s3)C[C@@H]12 [Compound 333]			> 500 nM	0.075 to 0.5 µM	
COc1ccc2c(O[C@@H]3C[C@H]4C(=O)N[C@]5(C(=O)NS(=O)(=O)C6(C)CC6)C[C@H]5/C=C\CCCCC[C@H](Nc5cccc(F)c5)C(=O)N4C3)cc(-c3ccccc3)nc2c1 [Compound 242]			< 10 nM	< 0.01 µM	
CC(C)(C)OC(=O)N[C@H]1CCCCC/C=C\[C@@H]2C[C@@]2(C(=O)NS(=O)(=O)C2(C)CC2)NC(=O)[C@@H]2C[C@@H](Oc3nc4ccc(Br)cc4s3)CN2C1=O [Compound 1013]	< 10 nM	< 0.01 µM			
CC1(S(=O)(=O)NC(=O)[C@@]23C[C@H]2/C=C\CCCCC[C@H](Nc2ccc4ccccc4c2)C(=O)N2C[C@H](Oc4nc5ccccc5s4)C[C@H]2C(=O)N3)CC1 [Compound 342]			75 to 500 nM	< 0.01 µM	
CC(C)Cn1c(O[C@@H]2C[C@H]3C(=O)N[C@]4(C(=O)NS(=O)(=O)C5(C)CC5)C[C@H]4/C=C\CCCCC[C@H](Nc4cc(F)cc(C(F)(F)F)c4)C(=O)N3C2)nc2ccccc21 [Compound 402]			10 to 75 nM	< 0.01 µM	
CC1(S(=O)(=O)NC(=O)[C@@]23C[C@H]2/C=C\CCCCC[C@H](Nc2ccc(-c4ccccc4)cc2)C(=O)N2C[C@H](Oc4nc5ccccc5s4)C[C@H]2C(=O)N3)CC1 [Compound 326]			> 500 nM	< 0.01 µM	
CC(=O)N(Cc1ccccc1)[C@H]1CCCCC/C=C\[C@@H]2C[C@@]2(C(=O)NS(=O)(=O)C2CC2)NC(=O)[C@@H]2C[C@@H](Oc3nc4ccccc4s3)CN2C1=O [Compound 316]				0.01 to 0.075 µM	EC50 (hepatitis C replicon; read-out: EC50 nM): > 500 nM
CC(C)(C)OC(=O)N[C@H]1CCCCC/C=C\[C@@H]2C[C@@]2(C(=O)NS(=O)(=O)C2(C)CC2)NC(=O)[C@@H]2C[C@@H](Oc3nc4ccccc4n3Cc3ccccc3)CN2C1=O [Compound 1050]	10 to 100 nM	< 0.01 µM			
CCn1c(O[C@@H]2C[C@H]3C(=O)N[C@]4(C(=O)NS(=O)(=O)C5(C)CC5)C[C@H]4CCCCCCC[C@H](Nc4cc(F)cc(C(F)(F)F)c4)C(=O)N3C2)nc2ccccc21 [Compound 466]			75 to 500 nM	< 0.01 µM	
COc1ccc2c(O[C@@H]3C[C@H]4C(=O)N[C@]5(C(=O)NS(=O)(=O)C6CC6)C[C@H]5/C=C\CCCCC[C@H](Nc5ccccc5)C(=O)N4C3)cc(-c3nc(C(C)C)cs3)nc2c1C [Compound 407]			< 10 nM	< 0.01 µM	
CC(C)(C)OC(=O)N[C@H]1CCCCC/C=C\[C@@H]2C[C@@]2(C(=O)NS(=O)(=O)c2ccccc2OCC(N)=O)NC(=O)[C@@H]2C[C@@H](O)CN2C1=O [Compound 1093]	> 100 nM	> 0.1 µM			
CC1(S(=O)(=O)NC(=O)[C@@]23C[C@H]2/C=C\CCCCC[C@H](Nc2ccc(Cl)c(Cl)c2)C(=O)N2C[C@H](Oc4nc5ccccc5s4)C[C@H]2C(=O)N3)CC1 [Compound 334]			75 to 500 nM	< 0.01 µM	
CC1(S(=O)(=O)NC(=O)[C@@]23C[C@H]2/C=C\CCCCC[C@H](Nc2cccc(F)c2)C(=O)N2C[C@H](OC(=O)N4Cc5cccc(F)c5C4)C[C@H]2C(=O)N3)CC1 [Compound 1117]	10 to 100 nM	< 0.01 µM			
CC(C)(C)OC(=O)N[C@H]1CCCCCCC[C@@H]2C[C@@]2(C(=O)NS(=O)(=O)C2(C)CC2)NC(=O)[C@@H]2C[C@@H](OC(=O)N3Cc4cccc(F)c4C3)CN2C1=O [Compound 1081]	< 10 nM	< 0.01 µM			
Cc1ccc2nc(O[C@@H]3C[C@H]4C(=O)N[C@]5(C(=O)NS(=O)(=O)C6(C)CC6)C[C@H]5/C=C\CCCCC[C@H](Nc5ccccc5)C(=O)N4C3)sc2c1 [Compound 218]			75 to 500 nM	< 0.01 µM	
